Holding throughout (assay): NCI tumour cell line growth inhibition, 48 h
Assay [1] relates to 786-0.
The test system of assay [2] is MCF7.
The subject of assay [3] is SF-539.
In assay [4] the test system is RXF 393.
The test system of assay [5] is RPMI-8226.
The subject of assay [6] is SF-295.
Assay [7] has as its system HT-29.
Assay [8] relates to HCT-15.
Assay [9] deals with K562.
Assay [10] deals with XF498.
Assay [11] relates to MDA-MB-231.
For assay [12], the system named is PC-3.
For assay [13], the system named is Malme-3M.
In assay [14] the test system is A549.
Assay [15] concerns DU-145.
Assay [16] relates to MDA-N.
The subject of assay [17] is SK-MEL-2.
The subject of assay [18] is HOP-92.
Assay [19] relates to OVCAR-8.
The test system of assay [20] is OVCAR-3.

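Following 48 hours of exposure in 96-well plates, responses at five concentrations were used to interpolate endpoints linearly. GI50 is the concentration that inhibits growth by half.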 Calls of active or inactive are those of the source. No stated cut-off is given here; in the data, active = GI50 up to about 1.1 µM and inactive = higher. Where a SMILES comes first, the peptide text is derived from it. [ ]: non-standard residue; d: D form. The star is where a group is joined. ξ: configuration not given here. X4 = COc1ccc(C(N*)c2ccc(OC)cc2)cc1; NMeF = CN[C@@H](Cc1ccccc1)C(=O)O; NMeD = CN[C@@H](CC(=O)O)C(=O)O; NMeV = CN[C@H](C(=O)O)C(C)C; ξNMeV = CNC(C(=O)O)C(C)C; Boc = CC(C)(C)OC(=O)*; ξNMeA = CNC(C)C(=O)O; ξV = CC(C)C(N)C(=O)O

Turning to `Cc1c(CNc2ccc(C(=O)NC(CC(=O)O)C(=O)O)cc2)ccc2nc(N)nc(N)c12` (stereo unspecified), the GI50 in [1] is < 0.164 µM (active); in assay [2], < 0.01 µM (active); in assay [3] it was 0.0127 µM (active); in assay [4] it was 5.04 µM (inactive); in [5], < 0.0182 µM (active); in assay [6] it was < 0.0106 µM (active). Besides, the GI50 in assay [7] is < 0.01 µM (active); in assay [8], below 0.01 µM; in assay [9], 0.0101 µM (active); in assay [10], 68.1 µM (inactive); in assay [11], > 100 µM (inactive); in [12] it was 13.4 µM (inactive). The GI50 is 31 µM (inactive) in assay [13]; < 0.01 µM (active) in [14]; < 0.01 µM (active) in assay [15]; < 0.01 µM (active) in [16]; > 100 µM (inactive) in assay [17]; 1.1 µM (active) in assay [18]. In assay [19], the GI50 is < 0.01 µM (active).
For the molecule `COc1ccc(C(NC(=O)C[C@@H](C(=O)N(C)C(C)C(=O)O)N(C)C(=O)[C@@H]2CCCN2C(=O)[C@H](C(C)C)N(C)C(=O)C(C(C)C)N(C)C(=O)[C@H](Cc2ccccc2)N(C)C(=O)C(NC(=O)OC(C)(C)C)C(C)C)c2ccc(OC)cc2)cc1` (stereo partly specified) (Boc-[ξV][NMeF][ξNMeV][NMeV]P[NMeD](X4)[ξNMeA]-OH), the GI50 in assay [1] was 21.3 µM (inactive); in assay [2], 16.1 µM (inactive); in [3], 7.94 µM (inactive); in [4], 7.5 µM (inactive); in assay [5], 8.24 µM (inactive); in assay [6], 18.9 µM (inactive). Also, the GI50 in assay [7] was 16.2 µM (inactive); in assay [20] it was 13.3 µM (inactive); in assay [8], 21.9 µM; in [9] it was 11 µM (inactive); in [10], 15.8 µM (inactive); in [11] it was 11.3 µM (inactive). Further, the GI50 in assay [12] was 13.7 µM (inactive); in assay [13], 14.4 µM (inactive); in [14] it was > 37.5 µM (inactive); in assay [15], 25.9 µM (inactive); in assay [16], 12.5 µM (inactive); in [17], 7.74 µM (inactive). Also, the GI50 is 8.26 µM (inactive) in assay [18] and 22.1 µM (inactive) in [19].
Take `CCOC(=O)/C(=C\c1ccc[nH]1)C(=O)c1ccccc1`: the GI50 in assay [1] was > 100 µM (inactive); in assay [3], > 100 µM (inactive); in [4] it was 38.2 µM (inactive); in assay [5], 82 µM (inactive); in assay [6], > 100 µM (inactive); in assay [7], > 100 µM (inactive). The GI50 in assay [20] is > 100 µM (inactive); in assay [8], above 100 µM; in assay [9] it was 35.2 µM (inactive); in assay [10] it was > 100 µM (inactive); in [13], > 100 µM (inactive); in [14], > 100 µM (inactive). Also, the GI50 in assay [17] is 89.9 µM (inactive); in assay [18] it was 22.6 µM (inactive); in assay [19], > 100 µM (inactive).
Take `c1ccc(CNc2ccc3[nH]c4cnccc4c3c2)cc1`: the GI50 in assay [1] was 15.3 µM (inactive); in assay [3], 18.1 µM (inactive); in assay [4], 13.6 µM (inactive); in assay [5], 16.4 µM (inactive); in [6], 18.5 µM (inactive); in assay [7] it was 17.7 µM (inactive). Also, the GI50 in assay [20] is 14 µM (inactive); in assay [8], 19.4 µM; in [9], 14.3 µM (inactive); in assay [10] it was 19.4 µM (inactive); in assay [13], 16.9 µM (inactive); in [14] it was 17.9 µM (inactive). Besides, the GI50 in [17] is 17.7 µM (inactive); in [18], 15.6 µM (inactive); in assay [19], 17.5 µM (inactive).
For `COC1=C2CC(C)CC(OC)C(O)C(C)/C=C(\C)C(OC(N)=O)C(OC)/C=C\C=C(/C)C(=O)NC(=C(/C=N/N3CCCCC3)C1=O)C2=O` (stereo unspecified), the GI50 in [1] was 10.2 µM (inactive); in assay [3], 7.33 µM (inactive); in assay [4] it was 5.73 µM (inactive); in assay [5], 5.55 µM (inactive); in assay [6], 13.5 µM (inactive); in [7], 6.55 µM (inactive). Besides, the GI50 in [20] was 2.15 µM (inactive); in assay [8] it was 12.2 µM; in [9] it was 5.4 µM (inactive); in assay [10], 8.95 µM (inactive); in [12], 15.3 µM (inactive); in assay [13] it was 15.2 µM (inactive). The GI50 in [14] was 21.5 µM (inactive); in assay [15], 18.3 µM (inactive); in assay [17], 17 µM (inactive); in assay [18], 15.7 µM (inactive); in [19] it was 3.83 µM (inactive).
As for `CCOC(=O)NC(=O)c1cn(CCN2CCN(c3ncnc4[nH]cnc34)CC2)c(=O)[nH]c1=O`, the GI50 in assay [1], in [3], in [4], in assay [5], in assay [6] and in assay [7] was > 100 µM (inactive) each time. Moreover, the GI50 is > 100 µM (inactive) in assay [20]; above 100 µM in [8]; > 100 µM (inactive) in assay [9]; > 100 µM (inactive) in assay [10]; > 100 µM (inactive) in assay [13]; > 100 µM (inactive) in [14]. Further, the GI50 in assay [17] is > 100 µM (inactive); in assay [18], 10.6 µM (inactive); in assay [19], > 100 µM (inactive).

Values taken from ChEMBL document CHEMBL1201862, “PubChem BioAssay data set” (2004).
